Reference: ChEMBL document CHEMBL1133323, “Antitumor agents. Part 202: novel 2'-amino chalcones: design, synthesis and biological evaluation” (2000)
Converted amounts (≈) assume the structure as drawn.

How the values were obtained:
[1] = tested on: A549; test: In vitro cytotoxicity against human lung carcinoma (A-549) cell line; assay type: functional; conditions: read-out: ED50 (the source's name)
[2] = tested on: HCT-8; test: In vitro cytotoxicity against human ileocecal carcinoma (HCT-8) cell line; assay type: functional; conditions: for EC50: read-out: ED50 (the source's name)
[3] = tested on: HOS; test: In vitro cytotoxicity against human osteosarcoma (Hos) cell line; assay type: functional; conditions: for EC50: read-out: ED50 (the source's name)
[4] = tested on: 1A9; test: In vitro cytotoxicity against human ovarian cancer (IA9) cell line; assay type: functional; conditions: read-out: ED50 (the source's name)
[5] = tested on: KB; test: In vitro cytotoxicity against human P-glycoprotein-expressing epidermoid carcinoma of the nasopharynx (KB-VIN) cell line; assay type: functional; conditions: read-out: ED50 (the source's name)
[6] = tested on: KB; test: In vitro cytotoxicity against human epidermoid carcinoma of the nasopharynx (KB) cell line; assay type: functional; conditions: read-out: ED50 (the source's name)
[7] = tested on: MCF7; test: In vitro cytotoxicity against human breast cancer (MCF-7) cell line; assay type: functional; conditions: read-out: ED50 (the source's name)
[8] = tested on: SK-MEL-2; test: In vitro cytotoxicity against human melanoma (SKMEL-2) cell line; assay type: functional; conditions: for EC50: read-out: ED50 (the source's name)
[9] = tested on: U-87 MG; test: (§1) In vitro cytotoxicity against human glioblastoma (U-87-MG) cell line; assay type: functional, U-87MG ATCC; parameters: concentration or dose not given beside the values
[10] = tested on: U-87 MG; test: as §1; assay type: functional, U-87MG ATCC; conditions: read-out: ED50 (the source's name)

Compound	EC50 [1]	EC50 [2]	EC50 [3]	EC50 [4]	EC50 [5]	EC50 [6]	EC50 [7]	EC50 [8]	Inhibition [9]	EC50 [10]	Inhibition [2]	Inhibition [3]	Inhibition [8]
Cc1ccccc1/C=C/C(=O)c1ccccc1N	3.5 µg/mL (≈ 14.7 µM)	9.8 µg/mL (≈ 41.3 µM)	4 µg/mL (≈ 16.9 µM)	1.2 µg/mL (≈ 5.06 µM)	1.25 µg/mL (≈ 5.27 µM)	1.35 µg/mL (≈ 5.69 µM)	6.1 µg/mL (≈ 25.7 µM)	5.1 µg/mL (≈ 21.5 µM)	34%	> 10 µg/mL			
Nc1cc2c(cc1C(=O)/C=C/c1ccccc1F)OCO2	2 µg/mL (≈ 7.01 µM)	3 µg/mL (≈ 10.5 µM)	4 µg/mL (≈ 14 µM)	1.5 µg/mL (≈ 5.26 µM)	0.95 µg/mL (≈ 3.33 µM)	1.5 µg/mL (≈ 5.26 µM)	2.6 µg/mL (≈ 9.11 µM)	6.5 µg/mL (≈ 22.8 µM)		7 µg/mL (≈ 24.5 µM)			
COc1cccc(/C=C/C(=O)c2ccccc2N)c1	1.2 µg/mL (≈ 4.74 µM)	4.5 µg/mL (≈ 17.8 µM)	2 µg/mL (≈ 7.9 µM)	0.8 µg/mL (≈ 3.16 µM)	0.3 µg/mL (≈ 1.18 µM)	0.65 µg/mL (≈ 2.57 µM)	1.3 µg/mL (≈ 5.13 µM)	3.5 µg/mL (≈ 13.8 µM)		5.1 µg/mL (≈ 20.1 µM)			
Cc1ccccc1C1OC1C(=O)c1ccccc1N (stereo unspecified)	17 µg/mL (≈ 67.1 µM)	> 20 µg/mL	> 20 µg/mL	12.5 µg/mL (≈ 49.3 µM)	11.5 µg/mL (≈ 45.4 µM)	15.5 µg/mL (≈ 61.2 µM)	19.5 µg/mL (≈ 77 µM)	> 20 µg/mL	28%	> 20 µg/mL	41%	47%	45%
COc1cccc(/C=C/C(=O)c2ccc3c(c2)OCO3)c1	18.5 µg/mL (≈ 65.5 µM)	> 20 µg/mL	> 20 µg/mL	15 µg/mL (≈ 53.1 µM)	14 µg/mL (≈ 49.6 µM)	18.7 µg/mL (≈ 66.2 µM)	19 µg/mL (≈ 67.3 µM)	> 20 µg/mL	20%	> 20 µg/mL	28%	42%	42%
COc1cccc(/C=C/C(=O)c2cc3c(cc2N)OCO3)c1	0.45 µg/mL (≈ 1.51 µM)	1.5 µg/mL (≈ 5.05 µM)	2.4 µg/mL (≈ 8.07 µM)	0.35 µg/mL (≈ 1.18 µM)	0.3 µg/mL (≈ 1.01 µM)	0.52 µg/mL (≈ 1.75 µM)	0.48 µg/mL (≈ 1.61 µM)	2.3 µg/mL (≈ 7.74 µM)		8 µg/mL (≈ 26.9 µM)			
Nc1cc2c(cc1C(=O)/C=C/c1ccc(F)cc1)OCO2	4.2 µg/mL (≈ 14.7 µM)	6.5 µg/mL (≈ 22.8 µM)	6 µg/mL (≈ 21 µM)	3.5 µg/mL (≈ 12.3 µM)	2.2 µg/mL (≈ 7.71 µM)	3.1 µg/mL (≈ 10.9 µM)	5.1 µg/mL (≈ 17.9 µM)	9 µg/mL (≈ 31.5 µM)	49%	> 10 µg/mL			
COc1cccc(C2OC2C(=O)c2cc3c(cc2N)OCO3)c1 (stereo unspecified)	2 µg/mL (≈ 6.38 µM)	2.1 µg/mL (≈ 6.7 µM)	4.5 µg/mL (≈ 14.4 µM)	1.2 µg/mL (≈ 3.83 µM)	1.3 µg/mL (≈ 4.15 µM)	2 µg/mL (≈ 6.38 µM)	1.1 µg/mL (≈ 3.51 µM)	9.8 µg/mL (≈ 31.3 µM)		5 µg/mL (≈ 16 µM)			
Nc1cc2c(cc1C(=O)C1OC1c1ccccc1F)OCO2 (stereo unspecified)	3.5 µg/mL (≈ 11.6 µM)	4.8 µg/mL (≈ 15.9 µM)	4 µg/mL (≈ 13.3 µM)	1.85 µg/mL (≈ 6.14 µM)	2.3 µg/mL (≈ 7.63 µM)	15.4 µg/mL (≈ 51.1 µM)	2.3 µg/mL (≈ 7.63 µM)	9.5 µg/mL (≈ 31.5 µM)		9 µg/mL (≈ 29.9 µM)			
